What all share (type): binding
One assay concerns the target T1, FGF-R4 ECD (Homo sapiens, UniProt P22455).
T1 construct: DNA constructs for the extracellular domain (ECD) of human FGF-; HPC4 (C); made in house; host or cells: HEK 293-6E
T1 sequence (P22455 22-369 limits assumed): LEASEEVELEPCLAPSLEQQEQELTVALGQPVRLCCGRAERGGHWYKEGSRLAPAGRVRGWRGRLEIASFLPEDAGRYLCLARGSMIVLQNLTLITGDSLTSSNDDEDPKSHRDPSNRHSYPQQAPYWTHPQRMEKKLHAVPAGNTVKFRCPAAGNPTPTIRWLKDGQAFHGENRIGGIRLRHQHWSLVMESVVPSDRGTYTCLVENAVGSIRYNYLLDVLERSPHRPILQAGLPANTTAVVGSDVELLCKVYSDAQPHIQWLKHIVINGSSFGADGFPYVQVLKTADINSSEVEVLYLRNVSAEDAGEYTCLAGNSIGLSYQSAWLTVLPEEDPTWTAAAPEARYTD
Briefly: single concentration BLI of crude peptides. Particulars: read-out: KD (4). An outline of the steps:
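Streptavidin biosensors carrying biotinylated FGF receptor ECD were immersed in peptide (~1 μM for crude single-point runs, a concentration series for purified peptides) and then in peptide-free buffer. KD was obtained by fitting the BLI association and dissociation curves.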

The target of a further assay is T2, FGF-R3C ECD (Homo sapiens, UniProt P22607).
T2 sequence (P22607 23-375 limits assumed): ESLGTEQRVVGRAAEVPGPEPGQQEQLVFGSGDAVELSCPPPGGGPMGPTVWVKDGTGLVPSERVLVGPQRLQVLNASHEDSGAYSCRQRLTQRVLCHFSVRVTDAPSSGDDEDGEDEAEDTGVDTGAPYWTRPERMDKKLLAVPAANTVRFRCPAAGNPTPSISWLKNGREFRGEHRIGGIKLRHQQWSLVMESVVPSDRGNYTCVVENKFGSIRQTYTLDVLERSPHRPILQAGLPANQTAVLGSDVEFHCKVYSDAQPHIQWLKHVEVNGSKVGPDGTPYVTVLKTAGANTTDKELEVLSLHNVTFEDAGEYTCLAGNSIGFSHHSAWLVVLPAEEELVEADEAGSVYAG
Briefly: biochemical. Also on record: DNA constructs for the extracellular domain (ECD) of human FGF-; HPC4 (C); made in house; host or cells: HEK 293-6E. The procedure, abridged: (§1)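 Biolayer interferometry with biotinylated FGF-R ECD on streptavidin biosensors in PBS pH 7.4, 0.05% Tween-20, 0.01% BSA. Multi-concentration: purified peptide dilution series fitted to a multi-point KD model.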

For another assay, the target named is T3, FGF-R1C ECD (Homo sapiens, UniProt P11362).
T3 sequence (P11362 22-376 limits assumed): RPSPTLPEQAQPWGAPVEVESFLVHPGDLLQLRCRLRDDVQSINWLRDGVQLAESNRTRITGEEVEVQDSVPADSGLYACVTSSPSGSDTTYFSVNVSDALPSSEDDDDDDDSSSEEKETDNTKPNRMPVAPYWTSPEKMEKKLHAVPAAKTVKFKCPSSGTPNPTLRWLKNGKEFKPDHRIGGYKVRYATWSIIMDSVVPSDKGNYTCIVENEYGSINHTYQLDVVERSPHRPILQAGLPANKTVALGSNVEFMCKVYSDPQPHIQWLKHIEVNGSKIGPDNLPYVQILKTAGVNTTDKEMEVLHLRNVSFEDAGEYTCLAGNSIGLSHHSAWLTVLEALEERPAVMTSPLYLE
Briefly: biochemical. More on the design: DNA constructs for the extracellular domain (ECD) of human FGF-; HPC4 (C); made in house; host or cells: HEK 293-6E. The procedure, abridged:
as §1

[1] abbreviates: crude T18 selection 1 (1:1:1) peptides, single concentration BLI (Table S4).
Setting [2] is: crude NNK peptides, single concentration BLI (Table S3).

pKd: −log10 of the molar value. Where two headings read alike, the source gives them in different places. Positions of bridges follow the written chain, without caps; N, C: chain ends. Residues, ends and D or L forms follow the SMILES beside them.

As usually defined, the pKd is the Kd on a negative log10 scale, so that one unit is a factor of ten. `CSCC[C@H](NC(C)=O)C(=O)N[C@H]1CSSC[C@@H](C(=O)NCC(=O)N[C@@H](CO)C(=O)NCC(=O)N[C@@H](CO)C(=O)N[C@@H](CC(=O)O)C(=O)N[C@@H](Cc2ccc(O)cc2)C(=O)N[C@@H](CCCCN)C(=O)N[C@@H](CC(=O)O)C(=O)N[C@@H](CC(=O)O)C(=O)N[C@@H](CC(=O)O)C(=O)N[C@@H](CC(=O)O)C(=O)N[C@@H](CCCCN)C(N)=O)NC(=O)[C@H](Cc2ccccc2)NC(=O)[C@H](C(C)C)NC(=O)[C@H](CCCNC(=N)N)NC(=O)[C@H](Cc2c[nH]c3ccccc23)NC(=O)[C@H](Cc2ccc(O)cc2)NC(=O)[C@H](CCC(N)=O)NC(=O)[C@H](C(C)C)NC(=O)[C@H](Cc2ccc(O)cc2)NC(=O)[C@H](Cc2ccc(O)cc2)NC(=O)[C@@H]2CCCN2C1=O` (Ac-MCPYYVQYWRVFCGSGSDYKDDDDK-NH2; disulfide 2-13): the pKd at FGF-R4 ECD (setting [1]) is 8.05; at FGF-R3C ECD, under 5.00; at FGF-R1C ECD it was under 5.00.
With `CSCC[C@H](NC(C)=O)C(=O)N[C@H]1CSSC[C@@H](C(=O)NCC(=O)N[C@@H](CO)C(=O)NCC(=O)N[C@@H](CO)C(=O)N[C@@H](CC(=O)O)C(=O)N[C@@H](Cc2ccc(O)cc2)C(=O)N[C@@H](CCCCN)C(=O)N[C@@H](CC(=O)O)C(=O)N[C@@H](CC(=O)O)C(=O)N[C@@H](CC(=O)O)C(=O)N[C@@H](CC(=O)O)C(=O)N[C@@H](CCCCN)C(N)=O)NC(=O)[C@H](C)NC(=O)[C@H](CC(C)C)NC(=O)[C@H](CC(C)C)NC(=O)[C@H](C)NC(=O)[C@@H]2CCCN2C(=O)[C@H](Cc2ccccc2)NC(=O)[C@H](Cc2ccccc2)NC(=O)[C@H](CCCNC(=N)N)NC(=O)[C@H](Cc2c[nH]c3ccccc23)NC(=O)[C@H](Cc2ccccc2)NC1=O` (Ac-MCFWRFFPALLACGSGSDYKDDDDK-NH2; disulfide 2-13), the pKd at FGF-R4 ECD (setting [2]), at FGF-R3C ECD and at FGF-R1C ECD was under 5.00 in each case.
As for `CSCC[C@H](NC(C)=O)C(=O)N[C@H]1CSSC[C@@H](C(=O)NCC(=O)N[C@@H](CO)C(=O)NCC(=O)N[C@@H](CO)C(=O)N[C@@H](CC(=O)O)C(=O)N[C@@H](Cc2ccc(O)cc2)C(=O)N[C@@H](CCCCN)C(=O)N[C@@H](CC(=O)O)C(=O)N[C@@H](CC(=O)O)C(=O)N[C@@H](CC(=O)O)C(=O)N[C@@H](CC(=O)O)C(=O)N[C@@H](CCCCN)C(N)=O)NC(=O)[C@H](Cc2c[nH]cn2)NC(=O)[C@H](Cc2c[nH]c3ccccc23)NC(=O)[C@H](Cc2ccc(O)cc2)NC(=O)[C@@H]2CCCN2C(=O)[C@H](CCC(=O)O)NC(=O)[C@H](Cc2ccc(O)cc2)NC(=O)[C@H](CC(C)C)NC(=O)[C@H](Cc2c[nH]cn2)NC(=O)[C@H](CCCNC(=N)N)NC(=O)[C@H](CC(C)C)NC1=O` (Ac-MCLRHLYEPYWHCGSGSDYKDDDDK-NH2; disulfide 2-13), the negative logarithm of the Kd (pKd) at FGF-R4 ECD (setting [1]), at FGF-R3C ECD and at FGF-R1C ECD was under 5.00 each time.
In the case of `CC[C@H](C)[C@@H]1NC(=O)[C@@H]2CCCN2C(=O)[C@H](Cc2c[nH]c3ccccc23)NC(=O)[C@H](Cc2ccccc2)NC(=O)[C@@H](NC(=O)[C@H](CCSC)NC(C)=O)CSSC[C@@H](C(=O)NCC(=O)N[C@@H](CO)C(=O)NCC(=O)N[C@@H](CO)C(=O)N[C@@H](CC(=O)O)C(=O)N[C@@H](Cc2ccc(O)cc2)C(=O)N[C@@H](CCCCN)C(=O)N[C@@H](CC(=O)O)C(=O)N[C@@H](CC(=O)O)C(=O)N[C@@H](CC(=O)O)C(=O)N[C@@H](CC(=O)O)C(=O)N[C@@H](CCCCN)C(N)=O)NC(=O)[C@H](C)NC(=O)[C@H](CCSC)NC(=O)[C@H](Cc2ccccc2)NC(=O)[C@H](CCCCN)NC(=O)[C@H](Cc2ccc(O)cc2)NC(=O)[C@H](Cc2c[nH]c3ccccc23)NC1=O` (Ac-MCFWPIWYKFMACGSGSDYKDDDDK-NH2; disulfide 2-13), the negative logarithm of the Kd (pKd) at FGF-R4 ECD (setting [2]), on FGF-R3C ECD and at FGF-R1C ECD was under 5.00 in each case.
As for `CC[C@H](C)[C@@H]1NC(=O)[C@H](Cc2c[nH]c3ccccc23)NC(=O)[C@H]([C@@H](C)CC)NC(=O)[C@H](CO)NC(=O)[C@@H]2CCCN2C(=O)[C@H](Cc2c[nH]cn2)NC(=O)[C@H](CO)NC(=O)[C@H](Cc2c[nH]c3ccccc23)NC(=O)[C@H](Cc2c[nH]c3ccccc23)NC(=O)[C@H](C(C)C)NC(=O)[C@@H](NC(=O)[C@H](CCSC)NC(C)=O)CSSC[C@@H](C(=O)NCC(=O)N[C@@H](CO)C(=O)NCC(=O)N[C@@H](CO)C(=O)N[C@@H](CC(=O)O)C(=O)N[C@@H](Cc2ccc(O)cc2)C(=O)N[C@@H](CCCCN)C(=O)N[C@@H](CC(=O)O)C(=O)N[C@@H](CC(=O)O)C(=O)N[C@@H](CC(=O)O)C(=O)N[C@@H](CC(=O)O)C(=O)N[C@@H](CCCCN)C(N)=O)NC1=O` (Ac-MCVWWSHPSIWICGSGSDYKDDDDK-NH2; disulfide 2-13), the pKd at FGF-R4 ECD (setting [1]) was under 5.00; on FGF-R3C ECD it was under 5.00; on FGF-R1C ECD, 7.19.
Turning to `CC[C@H](C)[C@@H]1NC(=O)[C@H](Cc2ccc(O)cc2)NC(=O)[C@H](C)NC(=O)[C@H](CC(C)C)NC(=O)[C@H](Cc2c[nH]c3ccccc23)NC(=O)[C@@H](NC(=O)[C@H](CCCCN)NC(=O)[C@@H](NC(=O)[C@H](CCSC)NC(=O)[C@H](CCSC)NC(C)=O)C(C)C)CSSC[C@@H](C(=O)NCC(=O)N[C@@H](CO)C(=O)NCC(=O)N[C@@H](CO)C(=O)N[C@@H](CC(=O)O)C(=O)N[C@@H](Cc2ccc(O)cc2)C(=O)N[C@@H](CCCCN)C(=O)N[C@@H](CC(=O)O)C(=O)N[C@@H](CC(=O)O)C(=O)N[C@@H](CC(=O)O)C(=O)N[C@@H](CC(=O)O)C(=O)N[C@@H](CCCCN)C(N)=O)NC(=O)[C@H]([C@@H](C)O)NC(=O)[C@H](CCCNC(=N)N)NC1=O` (Ac-MMVKCWLAYIRTCGSGSDYKDDDDK-NH2; disulfide 5-13), the negative-log Kd (pKd) at FGF-R4 ECD (setting [2]), at FGF-R3C ECD and on FGF-R1C ECD was under 5.00 each time.
For `CC[C@H](C)[C@@H]1NC(=O)[C@H](CC(C)C)NC(=O)[C@H](Cc2ccccc2)NC(=O)[C@H](Cc2ccc(O)cc2)NC(=O)[C@H](CCCCN)NC(=O)[C@H](C(C)C)NC(=O)[C@H](CCC(=O)O)NC(=O)[C@@H](NC(=O)[C@H](CCSC)NC(C)=O)CSSC[C@@H](C(=O)NCC(=O)N[C@@H](CO)C(=O)NCC(=O)N[C@@H](CO)C(=O)N[C@@H](CC(=O)O)C(=O)N[C@@H](Cc2ccc(O)cc2)C(=O)N[C@@H](CCCCN)C(=O)N[C@@H](CC(=O)O)C(=O)N[C@@H](CC(=O)O)C(=O)N[C@@H](CC(=O)O)C(=O)N[C@@H](CC(=O)O)C(=O)N[C@@H](CCCCN)C(N)=O)NC(=O)[C@H](Cc2c[nH]c3ccccc23)NC(=O)[C@H](CCCNC(=N)N)NC(=O)[C@H](CCCCN)NC(=O)[C@H](Cc2c[nH]c3ccccc23)NC1=O` (Ac-MCEVKYFLIWKRWCGSGSDYKDDDDK-NH2; disulfide 2-14), the negative logarithm of the Kd (pKd) at FGF-R4 ECD (setting [1]) is 7.82; at FGF-R3C ECD it was under 5.00; at FGF-R1C ECD, 6.19.
For `CSCC[C@H](NC(C)=O)C(=O)N[C@H]1CSSC[C@@H](C(=O)NCC(=O)N[C@@H](CO)C(=O)NCC(=O)N[C@@H](CO)C(=O)N[C@@H](CC(=O)O)C(=O)N[C@@H](Cc2ccc(O)cc2)C(=O)N[C@@H](CCCCN)C(=O)N[C@@H](CC(=O)O)C(=O)N[C@@H](CC(=O)O)C(=O)N[C@@H](CC(=O)O)C(=O)N[C@@H](CC(=O)O)C(=O)N[C@@H](CCCCN)C(N)=O)NC(=O)[C@H](CC(C)C)NC(=O)[C@H](CCCNC(=N)N)NC(=O)[C@H](CCC(=O)O)NC(=O)[C@H](Cc2c[nH]c3ccccc23)NC(=O)[C@H](Cc2ccc(O)cc2)NC(=O)[C@H](Cc2ccccc2)NC(=O)[C@H](CO)NC(=O)[C@H](Cc2c[nH]cn2)NC(=O)[C@H](CCC(N)=O)NC(=O)[C@H](CC(=O)O)NC(=O)[C@H](Cc2ccc(O)cc2)NC(=O)[C@H](Cc2c[nH]c3ccccc23)NC1=O` (Ac-MCWYDQHSFYWERLCGSGSDYKDDDDK-NH2; disulfide 2-15) the same measures were under 5.00, under 5.00 and under 5.00.

For the origin of these results see PMC10763615, “Identification and engineering of potent cyclic peptides with selective or promiscuous binding through biochemical profiling and bioinformatic data analysis” (RSC Chemical Biology, 2023).
